Experimental data as given in patent US20130252983A1, “ACTIVATING PHOSPHORYLATION SITE ON GLUTAMINASE C” (CORNELL UNIVERSITY, priority 2010, published 2013).
“Also recorded” adds a separate entry of the source.

Assays:
[1] = system: GA activity of MDA-MB231 cells; test: GA activity in mitochondrial fractions of treated MDA-MB231 cells; format: cell-based, human; settings: 10 μM, 48 hours
Experimental: 100%=620 moles of glutamine hydrolyzed per minute per mole of enzyme. Data represent the average of 3 experiments (±s.d.). […] Following precipitation of the beads and re-suspension, the samples were analyzed by Western blotting with anti-V5 antibody. […] Data represent the average of 3 experiments (±s.d.). […] Data represent the average of 3 experiments (±s.d.). […] Data represent the average of 3 experiments (±s.d.). FIG. 3E NIH 3T3 cells transiently expressing Dbl were assayed for focus formation in the presence of 10 μM 968 alone or together with 7 mM dimethyl α-ketoglutarate. […] 100%=680 nM glutamine hydrolyzed per minute per 10^5 cells. Data are the average of 3 experiments (±s.d.). […] 100%=750 nM glutamine hydrolyzed per minute per 10^5 cells. Data represent the average of 3 experiments (±s.d.).
Mitochondrial preparations were obtained using the mitochondria isolation kit from QIAGEN (Cat #37612). A suspension containing 2×10^7 cells was transferred into a 50 ml conical tube and centrifuged at 500×g for 10 minutes at 4° C. The pellets were resuspended in 2 ml of ice-cold lysis buffer (supplied by QIAGEN) and incubated for 10 minutes at 4° C. using an end-over-end shaker. […]

V5-tagged wild-type GAC = biological target: T1, V5-tagged wild-type GAC (Mus musculus, UniProt D3Z7P3); test: Glutaminase activity of V5-GAC immunoprecipitated from treated Dbl-transformed cells; format: cell-based; settings: 10 μM, 48 hours
T1 construct: expressed in transfected cells; host or cells: NIH 3T3 cells (stably expressing Dbl, or parental), transient transfection
T1 sequence (D3Z7P3 55-603 isoform D3Z7P3-2 limits assumed): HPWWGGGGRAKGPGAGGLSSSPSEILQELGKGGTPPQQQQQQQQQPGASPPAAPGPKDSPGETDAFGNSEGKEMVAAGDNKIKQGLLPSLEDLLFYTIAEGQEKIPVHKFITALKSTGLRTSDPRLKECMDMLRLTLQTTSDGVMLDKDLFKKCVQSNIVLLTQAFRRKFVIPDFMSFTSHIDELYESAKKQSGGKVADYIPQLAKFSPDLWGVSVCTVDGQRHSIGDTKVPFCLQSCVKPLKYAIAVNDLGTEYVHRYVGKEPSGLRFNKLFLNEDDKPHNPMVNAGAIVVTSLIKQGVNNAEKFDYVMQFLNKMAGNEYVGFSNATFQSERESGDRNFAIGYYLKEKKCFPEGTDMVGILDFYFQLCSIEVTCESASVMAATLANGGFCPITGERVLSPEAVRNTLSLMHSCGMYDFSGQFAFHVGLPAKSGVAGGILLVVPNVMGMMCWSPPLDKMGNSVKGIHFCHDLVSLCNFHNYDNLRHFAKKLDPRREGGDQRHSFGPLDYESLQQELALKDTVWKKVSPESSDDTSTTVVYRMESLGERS
Excerpt: (§1) FIGS. 4A-E illustrate the role of glutaminase C activity in cellular transformation. […] Data represent the average of 3 experiments (±s.d.). […] Data represent the average of 3 experiments (±s.d.). […] 100% represents the activity measured in untreated Dbl-transformed cells. The data represent the average of 2 experiments. […] 100% represents the activity measured in untreated SKBR3 cells. The data represent the average of 2 experiments. […] Data represent the average of 3 experiments (±s.d.).
NIH 3T3 cells stably expressing oncogenic Dbl were transiently transfected with DNA encoding VS-tagged GAC, and cells were treated with either 968 or BA-968 (10 μM) as indicated for 48 hours. The cells were then harvested and the ectopically expressed GAC was isolated by immunoprecipitation via the V5 tag. The samples were then assayed for glutaminase activity in the absence of phosphate (top panel) and the relative expression levels of V5-GAC was determined by Western blotting using an anti-V5 antibody (bottom panel).
Next the effect of the substitution of an alanine for a serine at amino acid 103 on the enzymatic activity of GAC was examined, as well as its sensitivity to the small molecule, 968. […] Following transfection, the cells were treated for 48 hours with 968 (10 μM) and then harvested. […]

[2] = system: NIH 3T3 cells stably expressing Cdc42(F28L) and transiently expressing mouse GAC; test: Focus formation of Cdc42(F28L) cells transiently expressing GAC; format: cell-based
Excerpt: as §1

SKBR3 cells = test: Soft-agar colony formation, SKBR3; format: cell-based, human; settings: 10 μM
Experimental: (§2) FIGS. 2A-G illustrate effects of 968 on the transforming activity of constitutively active Rho GTPases and human breast cancer cells. […] Cells were scored after 14 days and plotted as the percentage of the total number of colonies greater than 50 μm in diameter. Data represent the average of 3 experiments (±s.d.). […] Data represent the average of 3 experiments (±s.d.). […] Data represent the average of 3 experiments (±s.d.). […] After 24 hours at 37° C., the migratory cells were fixed, stained with GIEMSA, and counted. Data represent the average of 3 experiments (±s.d.). […] Data represent the average of 3 experiments (±s.d.). […] Data represent the average of 3 experiments (±s.d.). […] Data represent the average of 3 experiments (±s.d.).

[3] = system: NIH 3T3 cells stably expressing Cdc42(F28L), Rac(F28L), RhoC(F30L); test: Growth to high density or in low serum of cells expressing activated Rho GTPase mutants; format: cell-based, mouse; settings: 10 μM
Experimental: as §2

[4] = system: NIH 3T3 cells stably expressing Cdc42(F28L), Rac(F28L), RhoC(F30L); test: Soft-agar colony formation of cells expressing activated Rho GTPase mutants; format: cell-based, mouse; settings: 10 μM, 14 days
Experimental: as §2

CN(C)c1ccc(C2Nc3ccc4ccccc4c3C3=C2C(=O)CC(C)(C)C3)cc1Br (centres unmarked) [Compound 968, 5-[3-bromo-4-(dimethylamino)phenyl]-2,2-dimethyl-2,3,5,6-tetrahydrobenzo[a]]
basal GA activity [1]: sensitive to 968
basal glutaminase activity of wild-type GAC (V5-tagged wild-type GAC): susceptible to treatment
GA activity of immunoprecipitated V5-GAC (V5-tagged wild-type GAC; absence of phosphate): inhibited; also recorded: effective inhibitors of GAC activity
focus-forming activity [2]: can be blocked
colony formation in soft agar (SKBR3 cells): inhibits the ability
growth under low serum conditions ([3]; 1% calf serum): blocking their ability
growth to high density ([3]; 10% calf serum, 6 days): blocking their ability
colony formation in soft-agar [4]: blocking their ability
